One assay has as its target T1, IN–GCN2 interaction (UniProt P04585+Q9P2K8).
T1 construct: expressed as a truncated version (192-1024) in fusion after a glutathione S-transferase tag; Recombinant full-length IN was expressed in E. coli BL21 pLys; purchased SignalChem (GCN2); IN made in house in E. coli BL21 pLys E12-11G; host or cells: E. coli BL21 pLys (IN)
Nature of the assay: IN–GCN2 interaction assay (AlphaLISA). In kind it is binding, HIV-1 IN / human GCN2. The conditions noted are these: pilot screen, single dose of 100 µM; read-out: inhibition of the IN–GCN2 interaction signal. The source says:
We developed an in vitro plate-based assay to monitor the interaction between GCN2 and IN using the AlphaLISA technology (Figure 1). Taking advantage of the tags present on each recombinant protein (6xHis for IN prepared “in-house”, and GST for GCN2 commercially available), we used specific beads that fluoresce only when they are in close proximity (<200 nm). The signal obtained (light count) is directly proportional to the binding of IN to GCN2 (homogenous solution assay at steady state).
IN–GCN2 interaction assay. Protein–protein interactions were monitored using the AlphaLISA technology (Perkin Elmer) taking advantage of the GST and 6xHis tags of GCN2 and IN, respectively. Accordingly, AlphaScreen GSH Donor beads and AlphaLISA Nickel Acceptor beads were used (Perkin Elmer). Reactions were carried out at room temperature by incubating GCN2 with drugs or DMSO for 5 min before addition of AlphaLISA Nickel Acceptor beads. After 5 min, IN was added to the reaction mixture and incubated for 20 min before adding the AlphaScreen GSH Donor beads. This interaction assay was performed in conditions similar to the in vitro phosphorylation assay, already described, using 25 nM GCN2 and 700 nM (except indicated otherwise) in a reaction buffer containing 50 mM Tris-HCl pH 7.5, 40 mM NaCl, 1 mM dithiothreitol (DTT), 0.05% Tween 20, 0.1% bovine serum albumin (BSA), 10 µg/mL of each donor and acceptor beads. Alpha signal was measured using an EnSight plate reader (Perkin Elmer) 120 min after the addition of the latest component of the reaction (unless indicated otherwise).

The target of assay [1] is T2, IN's phosphorylation catalyzed by GCN2 (Homo sapiens, UniProt Q9P2K8).
T2 construct: expressed as a truncated version (192-1024) in fusion after a glutathione S-transferase tag; purchased SignalChem (GCN2); IN made in house in E. coli BL21 pLys E12-11G; host or cells: E. coli BL21 pLys (IN)
T2 sequence (Q9P2K8 192-1024): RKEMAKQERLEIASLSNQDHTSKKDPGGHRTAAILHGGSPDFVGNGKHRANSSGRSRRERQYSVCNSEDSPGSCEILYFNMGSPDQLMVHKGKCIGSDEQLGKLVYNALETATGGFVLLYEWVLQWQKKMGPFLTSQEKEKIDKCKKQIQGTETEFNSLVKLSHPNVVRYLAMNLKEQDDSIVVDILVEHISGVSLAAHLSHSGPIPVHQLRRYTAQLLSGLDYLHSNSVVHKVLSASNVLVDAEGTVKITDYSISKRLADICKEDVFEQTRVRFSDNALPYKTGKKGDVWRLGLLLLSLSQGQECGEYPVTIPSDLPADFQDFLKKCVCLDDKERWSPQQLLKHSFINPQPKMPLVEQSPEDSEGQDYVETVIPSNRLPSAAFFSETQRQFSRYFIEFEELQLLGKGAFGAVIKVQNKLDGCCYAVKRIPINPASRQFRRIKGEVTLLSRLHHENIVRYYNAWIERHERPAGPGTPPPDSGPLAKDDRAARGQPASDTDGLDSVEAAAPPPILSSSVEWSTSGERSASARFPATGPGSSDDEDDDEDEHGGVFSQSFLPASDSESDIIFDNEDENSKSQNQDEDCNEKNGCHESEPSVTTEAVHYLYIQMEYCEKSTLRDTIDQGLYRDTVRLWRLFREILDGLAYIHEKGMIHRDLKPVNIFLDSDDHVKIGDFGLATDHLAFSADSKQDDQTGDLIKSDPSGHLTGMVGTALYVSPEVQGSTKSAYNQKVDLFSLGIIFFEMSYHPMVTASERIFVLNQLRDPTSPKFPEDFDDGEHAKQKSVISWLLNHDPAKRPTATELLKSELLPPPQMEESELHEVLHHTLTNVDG
Put plainly: In vitro phosphorylation assay: phosphorylation of IN catalyzed by GCN2. In kind it is biochemical, human GCN2 / HIV-1 IN. As for the experimental part: Enzymes. GCN2 was purchased from SignalChem (EIF2AK4, cat. #E12-11G). […] Recombinant full-length IN was expressed in E. coli BL21 pLys (IPTG induction) and purified on a nickel chelating column, as described. Integrity and purity were checked by direct Coomassie coloration of elution fractions on SDS-PAGE before dialysis to remove imidazole.
In vitro phosphorylation assay. […] Reactions (20 µL) were stopped after a 60 min incubation at 30 °C by adding 10 µL of loading buffer [80 mM Tris-HCl pH 6.8, 100 mM DTT, 10% glycerol, 1% sodium dodecyl sulfate (SDS) and 0.05% bromophenol blue]. Samples were then loaded onto a 10% denaturating SDS-PAGE. After protein separation (120 V for 120 min) the gel was stained using Coomassie Brilliant Blue R-250. Autoradiography was performed using an imaging plate (Fujifilm, Tokyo, Japan) and images were obtained with a FLA-5000 Imaging System (Fujifilm).

As to `O=C1c2c(O)ccc(O)c2C(=O)c2c(NCCNCCO)ccc(NCCNCCO)c21` [NSC279836, Mitoxantrone], the inhibition at 100 µM at IN–GCN2 interaction is 99.4%; in assay [1] (single dose of 100 µM, compared to DMSO, read-out: decrease (inhibition) in IN phosphorylation) it was ~65%. Also, the “concentration giving full inhibition of IN phosphorylation” value in assay [1] (serial dilutions from 300 µM to 137 nM) is listed as 300 µM. Further, the “apparent IC50, IN phosphorylation” value in assay [1] (serial dilutions from 300 µM to 137 nM, in words) is reported as “low micromolar range”.

For orientation: inhibition means the drop in the measured response relative to a control, in per cent.

(Values after paper PMC8434491, “Targeting the Integrated Stress Response Kinase GCN2 to Modulate Retroviral Integration” (Molecules, 2021).)
